# Data: PubChem BioAssay (NCI)
#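 96-well plates; 48 h exposure; 5 concentrations. Endpoints by linear interpolation between flanking doses. Not reached: highest tested concentration assigned. TGI is the concentration that stops growth completely.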
# Columns and labels:
# Assay in all cases: growth of human tumour cells (NCI), 48 h
# 786-0 renal = tested on: 786-0 renal
# A498 renal = tested on: A498 renal
# A549 NSCLC = tested on: A549 NSCLC
# ACHN renal = tested on: ACHN renal
# BT-549 breast = tested on: BT-549 breast
# CAKI-1 renal = tested on: CAKI-1 renal
# CCRF-CEM leukemia = tested on: CCRF-CEM leukemia
# COLO 205 colon = tested on: COLO 205 colon
# DU-145 prostate = tested on: DU-145 prostate
# EKVX NSCLC = tested on: EKVX NSCLC
# HCC-2998 colon = tested on: HCC-2998 colon
# HCT-116 colon = tested on: HCT-116 colon
# HCT-15 colon = tested on: HCT-15 colon
# HL-60(TB) leukemia = tested on: HL-60(TB) leukemia
# HOP-62 NSCLC = tested on: HOP-62 NSCLC
# HOP-92 NSCLC = tested on: HOP-92 NSCLC
# HS 578T breast = tested on: HS 578T breast
# HT29 colon = tested on: HT29 colon
# IGROV1 ovarian = tested on: IGROV1 ovarian
# K-562 leukemia = tested on: K-562 leukemia
# KM12 colon = tested on: KM12 colon
# LOX IMVI melanoma = tested on: LOX IMVI melanoma
# M14 melanoma = tested on: M14 melanoma
# MALME-3M melanoma = tested on: MALME-3M melanoma
# MCF7 breast = tested on: MCF7 breast
# MDA-MB-231 breast = tested on: MDA-MB-231 breast
# MDA-MB-435 = tested on: MDA-MB-435
# MDA-N = tested on: MDA-N
# MOLT-4 leukemia = tested on: MOLT-4 leukemia
# NCI-H226 lung = tested on: NCI-H226 lung
# NCI-H23 lung = tested on: NCI-H23 lung
# NCI-H460 lung = tested on: NCI-H460 lung
# NCI-H522 lung = tested on: NCI-H522 lung
# NCI/ADR-RES ovarian = tested on: NCI/ADR-RES ovarian
# OVCAR-3 ovarian = tested on: OVCAR-3 ovarian
# OVCAR-4 ovarian = tested on: OVCAR-4 ovarian
# OVCAR-5 ovarian = tested on: OVCAR-5 ovarian
# OVCAR-8 ovarian = tested on: OVCAR-8 ovarian
# PC-3 prostate = tested on: PC-3 prostate
# RPMI-8226 leukemia = tested on: RPMI-8226 leukemia
# SF-268 CNS = tested on: SF-268 CNS
# SF-295 CNS = tested on: SF-295 CNS
# SF-539 CNS = tested on: SF-539 CNS
# SK-MEL-2 melanoma = tested on: SK-MEL-2 melanoma
# SK-MEL-28 melanoma = tested on: SK-MEL-28 melanoma
# SK-MEL-5 melanoma = tested on: SK-MEL-5 melanoma
# SK-OV-3 ovarian = tested on: SK-OV-3 ovarian
# SN12C renal = tested on: SN12C renal
# SNB-19 CNS = tested on: SNB-19 CNS
# SNB-75 CNS = tested on: SNB-75 CNS
# SR leukemia = tested on: SR leukemia
# SW-620 colon = tested on: SW-620 colon
# T-47D breast = tested on: T-47D breast
# TK-10 renal = tested on: TK-10 renal
# U251 CNS = tested on: U251 CNS
# UACC-257 melanoma = tested on: UACC-257 melanoma
# UACC-62 melanoma = tested on: UACC-62 melanoma
# UO-31 renal = tested on: UO-31 renal
# RXF 393 renal = tested on: RXF 393 renal
smiles,measurement,setting,value
Cc1ccc2c(c1)C(=O)c1[nH]c3ccc(F)cc3c1CO2,TGI,786-0 renal,> 100 µM
same,TGI,A498 renal,> 100 µM
same,TGI,A549 NSCLC,> 100 µM
same,TGI,ACHN renal,> 100 µM
same,TGI,BT-549 breast,> 100 µM
same,TGI,CAKI-1 renal,> 100 µM
same,TGI,CCRF-CEM leukemia,> 100 µM
same,TGI,COLO 205 colon,> 100 µM
same,TGI,DU-145 prostate,> 100 µM
same,TGI,EKVX NSCLC,> 100 µM
same,TGI,HCC-2998 colon,> 100 µM
same,TGI,HCT-116 colon,> 100 µM
same,TGI,HCT-15 colon,> 100 µM
same,TGI,HL-60(TB) leukemia,> 100 µM
same,TGI,HOP-62 NSCLC,36 µM
same,TGI,HOP-92 NSCLC,> 100 µM
same,TGI,HS 578T breast,58.1 µM
same,TGI,HT29 colon,> 100 µM
same,TGI,IGROV1 ovarian,> 100 µM
same,TGI,K-562 leukemia,> 100 µM
same,TGI,KM12 colon,> 100 µM
same,TGI,LOX IMVI melanoma,> 100 µM
same,TGI,M14 melanoma,> 100 µM
same,TGI,MALME-3M melanoma,> 100 µM
same,TGI,MCF7 breast,> 100 µM
same,TGI,MDA-MB-231 breast,> 100 µM
same,TGI,MDA-MB-435,> 100 µM
same,TGI,MDA-N,> 100 µM
same,TGI,MOLT-4 leukemia,> 100 µM
same,TGI,NCI-H226 lung,> 100 µM
same,TGI,NCI-H23 lung,> 100 µM
same,TGI,NCI-H460 lung,> 100 µM
same,TGI,NCI-H522 lung,> 100 µM
same,TGI,NCI/ADR-RES ovarian,> 100 µM
same,TGI,OVCAR-3 ovarian,> 100 µM
same,TGI,OVCAR-4 ovarian,88.8 µM
same,TGI,OVCAR-5 ovarian,> 100 µM
same,TGI,OVCAR-8 ovarian,62.2 µM
same,TGI,PC-3 prostate,> 100 µM
same,TGI,RPMI-8226 leukemia,> 100 µM
same,TGI,SF-268 CNS,> 100 µM
same,TGI,SF-295 CNS,31.6 µM
same,TGI,SF-539 CNS,49.8 µM
same,TGI,SK-MEL-2 melanoma,40.6 µM
same,TGI,SK-MEL-28 melanoma,> 100 µM
same,TGI,SK-MEL-5 melanoma,> 100 µM
same,TGI,SK-OV-3 ovarian,43 µM
same,TGI,SN12C renal,> 100 µM
same,TGI,SNB-19 CNS,46.8 µM
same,TGI,SNB-75 CNS,40.4 µM
same,TGI,SR leukemia,> 100 µM
same,TGI,SW-620 colon,> 100 µM
same,TGI,T-47D breast,> 100 µM
same,TGI,TK-10 renal,92.6 µM
same,TGI,U251 CNS,50.2 µM
same,TGI,UACC-257 melanoma,> 100 µM
same,TGI,UACC-62 melanoma,98.2 µM
same,TGI,UO-31 renal,> 100 µM
Cn1c(=O)c2c(nc3sc4nc5ccccc5nc4n32)n(C)c1=O,TGI,786-0 renal,> 100 µM
same,TGI,A498 renal,> 100 µM
same,TGI,A549 NSCLC,> 100 µM
same,TGI,ACHN renal,> 100 µM
same,TGI,BT-549 breast,> 100 µM
same,TGI,CAKI-1 renal,> 100 µM
same,TGI,CCRF-CEM leukemia,> 100 µM
same,TGI,COLO 205 colon,> 100 µM
same,TGI,DU-145 prostate,> 100 µM
same,TGI,EKVX NSCLC,> 100 µM
same,TGI,HCC-2998 colon,> 100 µM
same,TGI,HCT-116 colon,> 100 µM
same,TGI,HCT-15 colon,> 100 µM
same,TGI,HL-60(TB) leukemia,> 100 µM
same,TGI,HOP-92 NSCLC,> 100 µM
same,TGI,HS 578T breast,> 100 µM
same,TGI,HT29 colon,> 100 µM
same,TGI,IGROV1 ovarian,> 100 µM
same,TGI,K-562 leukemia,> 100 µM
same,TGI,KM12 colon,> 100 µM
same,TGI,LOX IMVI melanoma,> 100 µM
same,TGI,M14 melanoma,> 100 µM
same,TGI,MALME-3M melanoma,> 100 µM
same,TGI,MCF7 breast,> 100 µM
same,TGI,MDA-MB-231 breast,> 100 µM
same,TGI,MDA-MB-435,> 100 µM
same,TGI,MDA-N,> 100 µM
same,TGI,MOLT-4 leukemia,> 100 µM
same,TGI,NCI-H226 lung,> 100 µM
same,TGI,NCI-H23 lung,> 100 µM
same,TGI,NCI-H460 lung,> 100 µM
same,TGI,NCI/ADR-RES ovarian,> 100 µM
same,TGI,OVCAR-3 ovarian,> 100 µM
same,TGI,OVCAR-5 ovarian,> 100 µM
same,TGI,OVCAR-8 ovarian,> 100 µM
same,TGI,PC-3 prostate,> 100 µM
same,TGI,RPMI-8226 leukemia,> 100 µM
same,TGI,RXF 393 renal,> 100 µM
same,TGI,SF-268 CNS,> 100 µM
same,TGI,SF-295 CNS,> 100 µM
same,TGI,SF-539 CNS,> 100 µM
same,TGI,SK-MEL-5 melanoma,> 100 µM
same,TGI,SK-OV-3 ovarian,> 100 µM
same,TGI,SN12C renal,> 100 µM
same,TGI,SNB-19 CNS,> 100 µM
same,TGI,SNB-75 CNS,> 100 µM
same,TGI,SR leukemia,> 100 µM
same,TGI,T-47D breast,> 100 µM
same,TGI,TK-10 renal,> 100 µM
same,TGI,U251 CNS,> 100 µM
same,TGI,UACC-257 melanoma,> 100 µM
same,TGI,UACC-62 melanoma,> 100 µM
same,TGI,UO-31 renal,> 100 µM
